Experimental data as given in ChEMBL document CHEMBL1201862, “PubChem BioAssay data set” (2004).
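Growth conditions: 96-well plates. Treatment: test compound, 48 hours, 5 concentrations. Analysis: linear interpolation between bracketing concentrations; unreached endpoints set to highest concentration. GI50: concentration for 50% inhibition of growth.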 The source made the active and inactive calls. Cut-off read from the data, not from the text of the source: active = GI50 up to about 1.1 µM and inactive = higher. Non-standard residues stand in square brackets, D forms with d. Residues, ends and D or L forms follow the SMILES beside them. *: point of attachment. Phe(4-NO2) = N[CH](Cc1ccc([N+](=O)[O-])cc1)C(=O)O; Boc = CC(C)(C)OC(=O)*

Key:
Assay in all cases: growth of human tumour cells (NCI), 48 h
NCI-H460 = system: NCI-H460
SR = system: SR
MDA-MB-435 = system: MDA-MB-435
COLO 205 = system: COLO 205
SF-268 = system: SF-268
CAKI-1 = system: CAKI-1
HOP-92 = system: HOP-92
ACHN = system: ACHN
SNB-19 = system: SNB-19
Hs-578T = system: Hs-578T
TK-10 = system: TK-10
KM12 = system: KM12
HCT-116 = system: HCT-116
HT-29 = system: HT-29
M14 = system: M14
NCI-H23 = system: NCI-H23
EKVX = system: EKVX
RXF 393 = system: RXF 393
A498 = system: A498
MDA-N = system: MDA-N

Measured: GI50

COC(=O)CCC(NC(=O)OC(C)(C)C)C(=O)NC(Cc1ccc([N+](=O)[O-])cc1)C(=O)NC(CCC(=O)OC)C(=O)OC (stereo not given) (Boc-Glu(OMe)-[Phe(4-NO2)]-Glu(OMe)-OMe; configuration not given here)
inactive: NCI-H460 60.3 µM | SR 28.8 µM | MDA-MB-435 > 100 µM | COLO 205 > 100 µM | SF-268 > 100 µM | CAKI-1 > 100 µM | HOP-92 > 100 µM | ACHN > 100 µM | SNB-19 > 100 µM | Hs-578T > 100 µM | TK-10 > 100 µM | KM12 > 100 µM | HCT-116 > 100 µM | HT-29 87.3 µM | M14 > 100 µM | NCI-H23 > 100 µM | EKVX > 100 µM | RXF 393 > 100 µM | A498 > 100 µM | MDA-N > 100 µM
